Patent US4943566A, “Novel 17-aryl-steroids” (Roussel Uclafi, priority 1987, dated 1990)

Key:
[1] = biological target: T1, glucocorticoid receptor, rat thymus (Rattus norvegicus, UniProt P06536); experiment: Relative binding affinity (ARL), glucocorticoid receptor of rat thymus; details: rat thymus cytosol, tritiated dexamethasone, cold reference dexamethasone; for relative affinity of the bond (ARL), Glucocorticoid, 2H: incubation 2H at 0° C.; for relative affinity of the bond (ARL), Glucocorticoid, 24H: incubation 24H at 0° C.
T1 construct: The second test was a glucocrticoid receptor test on rat thymus; from tissue; host or cells: thymus of adrenalectomized male Sprague Dawley EOPS rats, 105,000 g supernatant (cytosol)
T1 sequence (P06536 1-795): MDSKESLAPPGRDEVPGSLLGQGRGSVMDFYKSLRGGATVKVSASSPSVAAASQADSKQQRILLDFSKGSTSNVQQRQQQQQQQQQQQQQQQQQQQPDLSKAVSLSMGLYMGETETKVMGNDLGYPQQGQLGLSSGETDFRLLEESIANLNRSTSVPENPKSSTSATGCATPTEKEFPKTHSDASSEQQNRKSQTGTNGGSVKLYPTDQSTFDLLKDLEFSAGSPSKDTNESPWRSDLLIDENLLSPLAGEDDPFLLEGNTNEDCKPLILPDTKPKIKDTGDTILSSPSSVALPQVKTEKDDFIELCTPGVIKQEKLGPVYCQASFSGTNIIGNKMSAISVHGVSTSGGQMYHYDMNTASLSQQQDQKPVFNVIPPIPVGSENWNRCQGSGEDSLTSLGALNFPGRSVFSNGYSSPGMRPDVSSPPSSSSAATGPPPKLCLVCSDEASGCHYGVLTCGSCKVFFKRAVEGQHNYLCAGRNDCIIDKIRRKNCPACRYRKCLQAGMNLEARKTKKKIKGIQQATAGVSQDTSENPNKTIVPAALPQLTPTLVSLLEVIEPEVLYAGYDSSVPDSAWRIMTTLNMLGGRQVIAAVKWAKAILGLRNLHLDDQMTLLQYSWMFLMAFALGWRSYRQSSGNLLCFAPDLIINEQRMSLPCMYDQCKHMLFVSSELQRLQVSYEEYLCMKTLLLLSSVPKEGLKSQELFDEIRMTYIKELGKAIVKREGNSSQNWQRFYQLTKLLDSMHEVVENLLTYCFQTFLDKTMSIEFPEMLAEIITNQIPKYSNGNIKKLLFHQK
Description: The second test was a glucocrticoid receptor test on rat thymus in which male rats of the Sprague Dawley EOPS strain weighing 160 to 200 g were surrenalectomized. 4 to 8 days after this ablation, the animals were killed and the thymus was removed and homogenized at 0° C. in a buffered TS solution. (Tris 10 mM, 0.25M saccharose, 2 mM dithiothreitol, HCl pH 7.4) with a Potter tetrafluoroethylene-glass (1 g of tissue per 10 ml/TS). The homogenate was ultracentrifuged at 105,000 for 90 minutes at 0° C. and the surnageant samples were incubated at 0° C. for a time t with a constant concentration T of tritiated dexamethasone in the presence of increasing concentrations (0-2500×10^-9 M) or cold dexamethasone or cold test compound. The concentration B of bound tritiated dexamethasone was measured for each incubate by carbon-dextran absorption technique.
(§1) The relative affinity of the bond (ARL) was calculated in the same for the receptors. One traced the following 2 curves: the percentage of bond tritiated hormone B/T as a logarithmic function of the concentration of the cold reference hormone and B/T as a logarithmic function of the concentration of the cold test compound. Using the equation [formula] B/T max.=% of bound tritiated hormone for one incubation of tritiated hormone at concentration (T)
(§2) B/T min.=% of bound tritiated hormone for one incubation of tritiated hormone at a concentration T in the presence of a great excess of cold hormone (2500×10^-9 M).
(§3) The intersections of I50 lines and the curves permit an evaluation of the hormone concentration of the cold reference (CH) and the cold test compound (CX) which inhibited by 50% the bounding of tritiated hormone to the receptor. The ARL of the test compound was determined by the equation. [formula] and the following results were obtained.

[2] = biological target: T2, progesterone receptors of rabbit uterus (Oryctolagus cuniculus, UniProt P06186); experiment: Relative binding affinity (ARL), progesterone receptors of rabbit uterus; details: rabbit uterus cytosol, tritiated 17,21-dimethyl-19-nor-Δ4,9-pregnadiene-3,20-dione, cold reference hormone progesterone; for relative affinity of the bond (ARL), Progestogen, 2H: incubation 2H at 0° C.; for relative affinity of the bond (ARL), Progestogen, 24H: incubation 24H at 0° C.
T2 construct: The first test was on the progesterone receptors of rabbit uterus; from tissue; host or cells: uterus of estradiol-treated immature rabbits, 105,000 g supernatant (cytosol)
T2 sequence (P06186 1-930): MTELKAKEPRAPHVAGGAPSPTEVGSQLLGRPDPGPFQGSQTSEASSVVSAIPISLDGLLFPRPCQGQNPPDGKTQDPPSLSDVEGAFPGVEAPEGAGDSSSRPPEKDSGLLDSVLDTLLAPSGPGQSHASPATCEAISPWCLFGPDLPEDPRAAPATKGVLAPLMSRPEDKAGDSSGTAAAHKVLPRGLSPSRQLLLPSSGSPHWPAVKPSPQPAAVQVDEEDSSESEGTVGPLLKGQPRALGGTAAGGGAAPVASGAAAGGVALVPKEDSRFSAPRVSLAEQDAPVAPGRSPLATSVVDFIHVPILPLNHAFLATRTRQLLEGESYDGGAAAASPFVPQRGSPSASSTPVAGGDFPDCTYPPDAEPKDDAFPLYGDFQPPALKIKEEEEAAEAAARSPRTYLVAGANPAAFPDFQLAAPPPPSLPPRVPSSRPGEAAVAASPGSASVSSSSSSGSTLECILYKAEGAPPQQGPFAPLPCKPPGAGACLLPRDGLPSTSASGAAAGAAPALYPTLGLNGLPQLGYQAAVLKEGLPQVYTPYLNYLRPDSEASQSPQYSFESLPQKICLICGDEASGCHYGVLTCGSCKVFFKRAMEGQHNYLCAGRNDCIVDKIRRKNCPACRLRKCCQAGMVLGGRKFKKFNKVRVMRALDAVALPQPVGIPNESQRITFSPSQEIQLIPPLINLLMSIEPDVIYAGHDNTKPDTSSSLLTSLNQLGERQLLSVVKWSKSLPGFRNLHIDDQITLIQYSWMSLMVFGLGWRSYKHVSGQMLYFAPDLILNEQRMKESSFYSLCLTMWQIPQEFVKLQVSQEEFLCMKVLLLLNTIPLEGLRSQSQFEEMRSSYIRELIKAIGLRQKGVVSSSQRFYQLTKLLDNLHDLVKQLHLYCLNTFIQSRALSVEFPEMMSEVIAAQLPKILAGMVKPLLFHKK
Description: The first test was on the progesterone receptors of rabbit uterus in which immature rabbits weighing about 1 kg received a cutaneous application of […] of estradiol and 5 days after treatment, the animals were sacrificed. The […] was removed, weighed and homogenized at 0° C. with a Potter Teflon-glass ina buffered solution. TS (Tris 10 mM, 0.25M Saccharose, HCl, pH 7.4) (1 g of tissue per 50 ml of TS). The homogenate was ultracentrifuged at 105,000 g×90 minutes at 0° C. The surnageant samples were incubated at a time at (t) 0° C. with a constant concentration (T) of tritiated product (R) which is 17,21-dimethyl-19-nor-Δ^4,9 -pregnadiene-3,20-dione in the presence of increasing concentrations from 0 to 2500×10^-9 M or cold R or cold progestenone or cold test compound. The concentration of bound tritiated R was measured for each incubate by absorption technique on dextran carbon.
as §1, §2, §3

Row | SMILES | relative affinity of the bond (ARL), Glucocorticoid, 2H [1] | relative affinity of the bond (ARL), Glucocorticoid, 24H [1] | relative affinity of the bond (ARL), Progestogen, 2H [2] | relative affinity of the bond (ARL), Progestogen, 24H [2]
1 | CSc1ccc([C@H]2C[C@@]3(C)[C@@H](CC[C@@]3(O)c3ccc(N(C)C)cc3)[C@@H]3CCC4=CC(=O)CCC4=C32)cc1 [Example 7, 11β-(4-methylthio-phenyl)-17α-(4-dimethylamino-phenyl)-Δ^4,9-estraidene-17β-ol-3-one] | 71 | 57 | 32 | 150
2 | COc1ccccc1[C@@]1(O)CC[C@H]2[C@@H]3CCC4=CC(=O)CCC4=C3[C@@H](c3ccc(N(C)C)cc3)C[C@@]21C [Example 11 (Product B), 11β-(4-dimethylamino-phenyl)-17β-(2-methoxy-phenyl)-Δ^4,9-estradiene-17α-ol-3-one] | 47 | 40 | 12 | 49
3 | CN(C)c1ccc([C@H]2C[C@@]3(C)[C@@H](CC[C@@]3(O)c3cccc(O)c3)[C@@H]3CCC4=CC(=O)CCC4=C32)cc1 [Example 13 (Product A), 11β-(4-dimethylamino-phenyl)-17α-(3-hydroxy-phenyl)-Δ^4,9-estradiene-17β-ol-3-one] | 153 | 145 | 34 | 122
4 | CN(C)c1ccc([C@H]2C[C@@]3(C)[C@@H](CC[C@@]3(O)c3ccccc3)[C@@H]3CCc4cc(O)ccc4[C@H]32)cc1 [Example 14, 11β-(4-dimethylamino-phenyl)-17α-phenyl-Δ^1,3,5(10) -estratriene-3,17β-diol] | 98 | 129 | 5 | 67
5 | COc1cccc([C@]2(O)CC[C@H]3[C@@H]4CCC5=CC(=O)CCC5=C4[C@@H](c4ccc(N(C)C)cc4)C[C@@]32C)c1 [Example 12 (Product A), 11β-(4-dimethylamino-phenyl)-17α-(3-methoxy-phenyl)-Δ^4,9-estradiene-17β-ol-3-one] | 90 | 76 | 24 | 131
6 | CN(C)c1ccc([C@H]2C[C@@]3(C)[C@@H](CC[C@@]3(O)c3ccc(O)cc3)[C@@H]3CCC4=CC(=O)CCC4=C32)cc1 [Example 6, 11β-(4-dimethylamino-phenyl)-17α-(4-hydroxy-phenyl)-Δ^4,9-estradiene-17β-ol-3-one] | 133 | 97 | 33 | 35
7 | CN(C)c1ccc([C@H]2C[C@@]3(C)[C@@H](CC[C@@]3(O)c3ccccc3O)[C@@H]3CCC4=CC(=O)CCC4=C32)cc1 [Example 10, 11β-(4-dimethylamino-phenyl)-17α-(2-hydroxy-phenyl)-Δ^4,9-estradiene-17β-ol-3-one] | 106 | 112 | 47 | 189
8 | COc1ccc([C@H]2C[C@@]3(C)[C@@H](CC[C@@]3(O)c3ccc(OC)cc3)[C@@H]3CCC4=CC(=O)CCC4=C32)cc1 [Example 1, 11β,17α-bis-(4-methoxy-phenyl)-Δ^4,9-estradiene-17β-ol-3-one] | 94 | 68 | 48 | 259
9 | CN(C)c1ccc([C@H]2C[C@@]3(C)[C@@H](CC[C@]3(O)c3cccc(O)c3)[C@@H]3CCC4=CC(=O)CCC4=C32)cc1 [Example 13 (Product B), 11β-(4-dimethylaminophenyl)-17β-(3-hydroxy-phenyl)-Δ^4,9-estradiene-17α-ol-3-one] | 76 | 63 | 1,9 | 1,7
10 | COc1ccccc1[C@]1(O)CC[C@H]2[C@@H]3CCC4=CC(=O)CCC4=C3[C@@H](c3ccc(N(C)C)cc3)C[C@@]21C [Example 11 (Product A), 11β-(4-dimethylamino-phenyl)-17α-(2-methoxy-phenyl)-Δ^4,9-estradiene-17β-ol-3-one] | 56 | 45 | 38 | 230
11 | Cc1ccc([C@]2(O)CC[C@H]3[C@@H]4CCC5=CC(=O)CCC5=C4[C@@H](c4ccc(N(C)C)cc4)C[C@@]32C)cc1 [Example 9, 11β-(4-dimethylamino-phenyl)-17α-(4-methyl-phenyl)-Δ^4,9-estradiene-17β-ol-3-one] | 39 | 40 | 22 | 110
